Test results as given in US7511041B2, “Fused azole-pyrimidine derivatives” (Bayer Pharmaceuticals Corporation, priority 2002, dated 2009).
Structures can show the parent of a compound that is named as a salt.

SMILES	melting point
O/C(=C\C1=Nc2cc(N3CCN(Cc4ccccc4)CC3)ccc2C2=NCCN12)c1cccnc1 [Example 1-103]	257 °C
COc1cccc2c1N=C(NC(=O)c1cccnc1Cl)N1CCN=C21.Cl [Example 2-119]	266 °C (dec.)
Cl.NS(=O)(=O)c1ccc(C(=O)NC2=Nc3ccccc3C3=NCCN23)c(Cl)c1 [Example 2-250]	300 °C (dec.)
COc1cc2c(cc1OC)C1=NCCN1C(/C=C(\O)c1sc(C)nc1C)=N2.Cl [Example 1-61]	268 to 271 °C
COc1cc(OC)c2c(c1)C1=NCCN1C(NC(=O)c1ccc(NC(C)=O)nc1)=N2.Cl [Example 2-71]	270 °C (dec.)
COc1cc2c(cc1OC)C1=NCCN1C(NC(=O)c1ccc(NC(C)=O)nc1)=N2.Cl [Example 2-58]	279 °C
O=C(NC1=Nc2ccccc2C2=NCCN12)c1cccnc1 (as salt: hydrochloride) [Example 2-2, N-(2,3-Dihydroimidazo[1,2-c]quinazolin-5-yl)nicotinamide hydrochloride]	289 °C (dec.)
COc1cc(OC)c2c(c1)C1=NCCN1C(/C=C(\O)c1cccnc1)=N2.Cl [Example 1-43]	290 °C (dec.)
COc1cc(C(=O)NC2=Nc3ccccc3C3=NCCN23)cc(OC)c1C.Cl [Example 2-242]	321 °C (dec.)
Cl.O/C(=C\C1=Nc2cc(N3CCOCC3)ccc2C2=NCCN12)c1cccnc1 [Example 1-95]	> 300 °C
Cl.O/C(=C\C1=Nc2cc(CN3CCOCC3)ccc2C2=NCCN12)c1cccnc1 [Example 1-112]	242 °C
Cc1cc(Br)c2c(c1)C1=NCCN1C(/C=C(\O)c1ccc3[nH]cnc3c1)=N2.Cl [Example 1-48]	> 285 °C
Cl.O/C(=C\C1=Nc2ccccc2C2=NCCN12)c1ccno1 [Example 1-153]	245 °C (dec.)
COc1ccc2c(c1OC)N=C(/C=C(\O)c1cccnc1)N1CCN=C21.Cl [Example 1-11]	249 to 250 °C
Cc1ccc2c(c1OCCN1CCOCC1)N=C(/C=C(\O)c1cccnc1)N1CCN=C21.Cl [Example 1-40]	256 °C (dec.)
COc1ccc2c(c1OC)N=C(NC(=O)c1ccc3[nH]cnc3c1)N1CCN=C21.Cl [Example 2-50]	278 °C (dec.)
COc1c(OCCCC(=O)O)ccc2c1N=C(/C=C(\O)c1cccnc1)N1CCN=C21 (as salt: hydrochloride) [Example 1-7, 4-{[5-(2-Hydroxy-2-pyridin-3-ylvinyl)-7-methoxy-2,3-dihydroimidazo[1,2-c]quinazolin-8-yl]oxy}butanoic acid hydrochloride]	249 to 251 °C
Cl.O=C(NC1=Nc2ccccc2C2=NCCN12)c1sccc1Cl [Example 2-181]	298 °C (dec.)

Now from value to compound:

melting point	SMILES
263 °C (dec.)	O/C(=C\c1nc2ccccc2c2nccn12)c1cccs1 (as salt: hydrochloride) [Example 3-1, (Z)-2-Imidazo[1,2-c]quinazolin-5-yl-1-(2-thienyl)ethenol]
235 °C (dec.)	COc1c(OCC(N)=O)ccc2c1N=C(/C=C(\O)c1cccnc1)N1CCN=C21.Cl [Example 1-24]
291 °C (dec.)	Cc1ccncc1C(=O)NC1=Nc2ccccc2C2=NCCN12.Cl [Example 2-137]
272 °C (dec.)	COc1cncc(C(=O)NC2=Nc3ccccc3C3=NCCN23)c1.Cl [Example 2-141]
229 °C (dec.)	Cl.O=C(NC1=Nc2cc(OCCOCCO)ccc2C2=NCCN12)c1cccnc1 [Example 2-202]
227 °C	Cl.O=C(NC1=Nc2cc(OCC(=O)N3CCOCC3)ccc2C2=NCCN12)c1cccnc1 [Example 2-208]
310 °C (dec.)	Cl.O=C(NC1=Nc2ccccc2C2=NCCN12)c1csc(-c2cccnc2)n1 [Example 2-320]
228 °C (dec.)	O=C(Nc1nc2ccccc2c2nccn12)c1cccnc1 (as salt: hydrochloride) [Example 4-2, N-Imidazo[1,2-c]quinazolin-5-ylnicotinamide hydrochloride]
